Values of other authors as cited in patent publication US7833962B2, “Method of reducing hypertension by administering flavanol gylcosides” (Conopco, Inc., priority 2003, dated 2010).
Entries after “also recorded” stand apart in the source; their conditions may differ.

What was measured:
[1] = system: Spontaneously Hypertensive Rats (SHR); details: chronic treatment, Duarte et al. 2001
[2] = compared with quercetin glucosides such as isoquercitrin

SMILES	blood pressure [1]	glutathione peroxidase activity [1]	plasma and hepatic malondialdehyde levels [1]	bioavailability [2]
O=c1c(O)c(-c2ccc(O)c(O)c2)oc2cc(O)cc(O)c12 [quercetin aglycone, quercetin]	reduced blood pressure	increased glutathione peroxidase activity	reduced both plasma and hepatic malondialdehyde levels	
C[C@@H]1O[C@@H](OC[C@H]2O[C@@H](Oc3c(-c4ccc(O)c(O)c4)oc4cc(O)cc(O)c4c3=O)[C@H](O)[C@@H](O)[C@@H]2O)[C@H](O)[C@H](O)[C@H]1O [rutin, quercetin-3-rutinoside]				poor bioavailability; also recorded: much lower than the glucoside isoquercitrin
